# Results reported in PMC11466185, “Mechanisms and efficacy of small molecule latency-promoting agents to inhibit HIV reactivation ex vivo” (JCI Insight, 2024).
# Test system: HIV transcripts (TAR, LLTR, Pol, PolyA, TatRev)
# Assay: Baseline HIV transcription without activation, PBMCs from ART-suppressed PWH, 24 hours
# Assay type: cell-based
# Settings: no activation; for HIV splicing (TatRev/PolyA) without activation: not statistically significant; for LLTR HIV transcripts (DMSO = 100) / Pol HIV transcripts (DMSO = 100) / PolyA HIV transcripts (DMSO = 100) / Tat-Rev HIV transcripts (DMSO = 100) / PolyA/LLTR ratio (DMSO = 1) / TatRev/PolyA ratio (DMSO = 1) / TAR HIV transcripts (DMSO = 100) / LLTR/TAR ratio (DMSO = 1): ruxolitinib 4μM, dinaciclib 8nM, AZD4573 8nM, KRIBB11 2.5μM; for LLTR HIV transcripts (DMSO = 100) / Pol HIV transcripts (DMSO = 100) / PolyA HIV transcripts (DMSO = 100) / Tat-Rev HIV transcripts (DMSO = 100) / TAR HIV transcripts (DMSO = 100): pladienolide B 10nM; for PolyA/LLTR ratio (DMSO = 1) / TatRev/PolyA ratio (DMSO = 1) / LLTR/TAR ratio (DMSO = 1): pladienolide B
# Protocol: For a selection of the compounds, we evaluated the ability to reduce baseline HIV transcription without activation. PBMCs were cultured in the presence of individual drugs in DMSO or DMSO alone as a control and harvested after 24 hours. For each drug, we tested PBMCs from at least 3 PWH, as indicated in Supplemental Figure 5B. […] Likewise, pladienolide B appeared to reduce the level of multiply spliced transcripts (33%, Supplemental Figure 5, A and B).
# PBMCs were isolated from fresh venous blood from 16 ART-suppressed HIV-infected study participants using Ficoll density gradient centrifugation. The cells were seeded at 6 × 10^6 cells/well and cultured with antiretrovirals (nevirapine and indinavir) to prevent new infection. On the next day, PBMCs were activated with anti-CD3/CD28–coated beads (Invitrogen) in the presence of 20 U/mL IL-2 and individual drugs in DMSO or DMSO alone as a control. Since we were limited in the PBMC yield per study participant, different study participants were used for different experiments (such as the initial screen, dose response, different time points, and studies in activated vs. unstimulated cells). In addition, the yields of PBMCs were sometimes insufficient to test all drugs for a given question or experiment.
# Total cellular DNA and RNA were extracted in parallel using Trireagent (Molecular Research Center) according to the manufacturer’s instructions, except for study participants 2147 and 2461 (Figure 4), for whom DNA and RNA were extracted using the QIAGEN AllPrep DNA/RNA/miRNA Universal Kit with on-column DNase I treatment of the RNA and the manufacturer’s modification to enhance recovery of short transcripts. RNA and DNA concentrations were measured using UV spectrophotometry (NanoDrop One, Thermo Fisher Scientific). Total initiated HIV (TAR) transcripts were quantified by a 3-step polyadenylation RT-ddPCR as described previously ([8], [84]). HIV 5′ elongated (LLTR), midtranscribed (Pol), completed (PolyA), and multiply spliced (TatRev) transcripts were quantified by a 2-step RT-ddPCR as previously described ([8]). The levels of each HIV transcript were normalized to 1 μg of total cellular RNA and expressed as a percentage of the (activated) DMSO control. To quantify virion-associated RNA in supernatant, RNA was extracted from 400 μL supernatant using Trireagent-LS (Molecular Research Center) according to the manufacturer’s instructions. Levels of U3-polyadenylated HIV RNA were measured in the supernatant by RT-ddPCR, normalized to copies/mL, and expressed as a percentage of the activated DMSO. For measuring the HIV infection frequency at day 6, the HIV DNA U3-U5 LTR region was quantified by using ddPCR as described previously ([8]). HIV DNA copies were normalized to cell numbers according to the mass of DNA input per well (calculated from the DNA concentration and input volume) ([85]).
# Figure S5. CDK-inhibitors appear to decrease baseline HIV splicing even in the absence of T cell activation. Each drug was tested in PBMCs from at least three ART-suppressed study participants and PBMCs were aliquoted into wells at 6x10^6 cells/well. The cells were cultured with antiretrovirals but without activation in the presence of individual drugs in (1 picture or pasted object on this page, not shown here)
# DMSO or DMSO alone as control. After 24h, total RNA was extracted and the progression through different stages of HIV transcription was quantified by measuring the levels of initiated (TAR), 5’ elongated (LLTR), mid-transcribed/unspliced (Pol), completed (PolyA) and multiply spliced (TatRev) HIV transcripts. A-B) The levels of all HIV transcripts were quantified, normalized to 1 µg of total cellular RNA, and expressed as a percent of the DMSO control (% of DMSO). A) Medians are shown, as well as the values of the individual study participants in different colors. B) The medians from panel A) are presented. The effect of each drug on the different transcripts was studied in three to six study participants, as […]
# [1] = participant 5557 (DMSO cell empty)
Structure (SMILES),5′ elongated HIV transcripts without activation compared to DMSO (24 hours),Completed HIV transcripts without activation compared to DMSO (24 hours),HIV splicing (TatRev/PolyA) without activation (24 hours),LLTR HIV transcripts (DMSO = 100) (participant 156),Pol HIV transcripts (DMSO = 100) (participant 156),PolyA HIV transcripts (DMSO = 100) (participant 156),Tat-Rev HIV transcripts (DMSO = 100) (participant 156),LLTR HIV transcripts (DMSO = 100) (participant 163),Pol HIV transcripts (DMSO = 100) (participant 163),PolyA HIV transcripts (DMSO = 100) (participant 163),Tat-Rev HIV transcripts (DMSO = 100) (participant 163),LLTR HIV transcripts (DMSO = 100) (participant 1379),Pol HIV transcripts (DMSO = 100) (participant 1379),PolyA HIV transcripts (DMSO = 100) (participant 1379),TAR HIV transcripts (DMSO = 100) (participant 1379),LLTR HIV transcripts (DMSO = 100) (participant 2027),Pol HIV transcripts (DMSO = 100) (participant 2027),PolyA HIV transcripts (DMSO = 100) (participant 2027),TAR HIV transcripts (DMSO = 100) (participant 2027),LLTR HIV transcripts (DMSO = 100) (participant 2750),also measured
CC(=O)N[C@@H]1CCC[C@H](C(=O)Nc2cc(-c3cnn4c3CC(C)(C)C4)c(Cl)cn2)C1 [AZD4573],did not reduce,did not reduce,severely reduce,37.81,28.11,93.77,0,69.35,112.58,122.94,0,41.73,110.74,43.19,286.67,76.52,30.35,87.13,211.63,134.54,"Multiply spliced HIV transcripts without activation, median relative to DMSO (24 hours, at least 3 PWH): 0%; PolyA/LLTR ratio (DMSO = 1) (participant 156): 2.48; TatRev/PolyA ratio (DMSO = 1) (participant 156): 0; PolyA/LLTR ratio (DMSO = 1) (participant 163): 1.773; TatRev/PolyA ratio (DMSO = 1) (participant 163): 0; LLTR/TAR ratio (DMSO = 1) (participant 1379): 0.1456; PolyA/LLTR ratio (DMSO = 1) (participant 1379): 1.035; LLTR/TAR ratio (DMSO = 1) (participant 2027): 0.3616; PolyA/LLTR ratio (DMSO = 1) (participant 2027): 1.1386; Pol HIV transcripts (DMSO = 100) (participant 2750): 202.4; PolyA HIV transcripts (DMSO = 100) (participant 2750): 70.63; TAR HIV transcripts (DMSO = 100) (participant 2750): 206.7; Tat-Rev HIV transcripts (DMSO = 100) (participant 2750): 0; LLTR/TAR ratio (DMSO = 1) (participant 2750): 0.6509; PolyA/LLTR ratio (DMSO = 1) (participant 2750): 0.525; TatRev/PolyA ratio (DMSO = 1) (participant 2750): 0; LLTR HIV transcripts (DMSO = 100) [1]: 170.71; Pol HIV transcripts (DMSO = 100) [1]: 0; TAR HIV transcripts (DMSO = 100) (participant 5557): 348.03; LLTR/TAR ratio (DMSO = 1) (participant 5557): 0.57"
CCc1cnn2c(NCc3ccc[n+]([O-])c3)cc(N3CCCC[C@H]3CCO)nc12 [dinaciclib],did not reduce,did not reduce,severely reduce,121.36,49.08,67.47,0,142.94,207.39,173.7,0,40.3,0,20.95,228.89,82.61,131.38,193.29,248.84,83.98,Pol HIV transcripts (DMSO = 100) (participant 2750): 102.74; PolyA HIV transcripts (DMSO = 100) (participant 2750): 91.99; TAR HIV transcripts (DMSO = 100) (participant 2750): 108.94; Tat-Rev HIV transcripts (DMSO = 100) (participant 2750): 0; LLTR HIV transcripts (DMSO = 100) [1]: 59.59; Pol HIV transcripts (DMSO = 100) [1]: 0; TAR HIV transcripts (DMSO = 100) (participant 5557): 176.06
